# Legend:
# HepG2 cells [1] = assay: Fat oxidation (intracellular beta-hydroxybutyrate, triglycerides) in HepG2 cells; format: cell-based; details: HepG2, FIG. 5
# Protocol: (§1) HepG2 cells were exposed to serum-free media for 3 hours and then exposed to gluconeogenic factors (lactate and pyruvate 10:1 ratio) and stimulators (cAMP) in the presence of increasing concentrations of OHP (in nM). Intracellular glucose production—a marker of de novo gluconeogenesis—was determined enzymatically (biovision glucose determination kit), as well as intracellular beta-hydroxybutyrate levels (a marker of fat oxidation) and triglycerides (substrate for fat oxidation). […] The results are depicted at FIG. 5.
# AMPKinase = AMPKinase activation in HepG2 cells (Western blot of phosphorylated AMPK and ACC); format: cell-based; details: HepG2, 1 hour, FIG. 2a
# Text: OHP effects on AMPKinase activation in HepG2 cells. […] (RNeasy kit, QIAGEN). OHP effects on APPL1 nuclear translocation. […] The results are presented at FIGS. 2a and 2b.
# AMP KINASE = AMP KINASE activation, cell based ELISA in Hepatoma (Hep 2) liver cells; details: 0.1 nM, 30 m, over baseline of 100 (DMSO control)
# Protocol: AMP KINASE activation potential of the compounds was evaluated using cell based ELISA·Hepatoma (Hep 2) liver cells were maintained in a T 75 culture flask-containing 25 mM DMEM+10% fetal calf serum. The cells were maintained in a T 75 culture flask-containing medium (DMEM+10% fetal calf serum). On reaching a confluence of 70 to 80%, the cells were seeded in a 96 well plate at a density of 40,000 cells per well in 25 mM DMEM+10% FCS medium. The plates were then incubated at 37° C. with 5% CO2 for 24 hours. Various concentrations of drugs were prepared in DMSO and diluted to required concentration with the medium and incubated at 37° C. with 5% CO2 for 30 min and 1 h for Epicatechin analogs and 11-BHP analogs respectively. Metformin was used as positive control·Cells were fixed with 4% formaldehyde for 30 minutes at room temperature and washed three times with PBS containing 0.1% Triton X-100. Endogenous peroxidase was quenched with 1% H2O2 in PBS-T (0.1% Tween 20) for 30 minutes and washed three times in PBS-T. Cells were blocked with 1% BSA in PBS-T for 1 hour. The cells were incubated with 1:1000 dilution primary antibody (Phospho-AMPKα ([…]) Rabbit mAb, Cell Signaling in PBS-T containing 5% BSA at 4° C. overnight. The cells were then washed three times with PBS-T for 5 minutes and incubated with 1:1000 dilution secondary antibody (Anti-rabbit IgG, HRP-linked Antibody, Cell Signaling) in PBS-T with 1% BSA for 1 hour at RT·Cells were washed three times with PBS-T for 5 minutes The cells were incubated with 100 μl TMB substrate solution for 30 minutes and the reaction was stopped with 100 μl of 2N H2SO4. Then the plate was read at 450 nm using ELISA plate reader and absorbance recorded. % activity was calculated using DMSO control as 100%.
# [2] = tested on: mitochondrial oxidative phosphorylation complex I; assay: Western blot of mitochondrial oxidative phosphorylation complex I protein levels in human coronary artery endothelial cells; format: cell-based; details: HCAEC, 48 h, FIG. 1a
# Protocol: Cells were grown in Dulbecco's modified Eagle's media supplemented with fetal bovine serum (10%) to ˜90% confluence. Cells were treated with either vehicle (water) or incremental doses of the agent (dissolved in water) for a total of 48 h (treatment was repeated at the 24 h time point). At the end of the experiment, cells were lysed in Western blot sample buffer. A fixed amount of protein (25 micrograms) was loaded onto a polyacrylamide gel and run for 1 h to allow for the electrophoretic separation of proteins. The gel was then transferred onto a polyvinyl membrane for incubation with blocking buffer prior to exposure to the 1ry antibody (anti-human complex […]. Following a 1 h incubation at room temperature the membrane was washed and then exposed to the 2ry antibody for 1 h. after a second set of washes the membrane was incubated with an enhanced-chemiluminescence kit solution followed by exposure to X-ray film. The image obtain was used to quantitative changes in complex I protein levels as a function of compound dose. To normalize for loading differences the membrane was re-incubated (as above) with the subunit 6 ribosomal protein (S6RP) and exposed to X-ray film. Changes in values for complex I levels are normalized to differences in S6RP levels. All data are normalized to the values noted for cells treated with vehicle only (=100%). The results are presented at FIG. 1 a.
# HepG2 cells [3] = assay: Intracellular glucose production (de novo gluconeogenesis) in HepG2 cells; format: cell-based; details: HepG2, FIG. 5
# Protocol: as §1
# HepG2 cells [4] = assay: Mitochondrial DNA content in HepG2 cells; format: cell-based; details: HepG2, 24 hours, FIG. 3b
# Text: The results are depicted at FIGS. 3a and 3b.
# [5] = listed as 11β-hydroxypregnenolone
smiles,measurement,setting,value
"CC(=O)C1CC[C@H]2[C@@H]3CC=C4CC(O)CC[C@]4(C)[C@H]3[C@@H](O)C[C@]12C (stereo partly drawn) [Compound 1039, 1-((8S,9S,10R,11S,13S,14S)-3,11-dihydroxy-10,13-dimethyl-2,3,4,- 7,8,9,10,11,12,13,14,15,16,17-tetradecahydro-1H-cyclopenta[a]-phenanthren-17-yl)ethanone]",fat oxidation,HepG2 cells [1],stimulates oxidation of fat
same,fat oxidation,HepG2 cells [1]; [5],stimulation of fat oxidation
same,activation of AMP kinase,AMPKinase,activates AMPkinase
same,activation of AMP kinase,AMPKinase; [5],activation of AMP KINASE
same,% pAMPK,AMP KINASE,109%
same,mitochondrial biogenesis (complex I protein levels),[2],causes mitochondrial biogenesis
same,mitochondrial biogenesis (complex I protein levels),[2]; [5],mitochondrial biogenesis
same,hepatic gluconeogenesis (intracellular glucose production),HepG2 cells [3],reduces hepatic gluconeogenesis
same,hepatic gluconeogenesis (intracellular glucose production),HepG2 cells [3]; [5],reduction of hepatic gluconeogenesis
same,mitochondrial DNA content,HepG2 cells [4],increases the DNA content of mitochondria
same,mitochondrial DNA content,HepG2 cells [4]; [5],increase of mitochondrial DNA content
